Assay [1] deals with U87MG glioblastoma cells. In words: Direct equilibrium binding titration on U87MG glioblastoma cells. As to conditions: for Kd: recombinant peptides with FLAG and His tags, 3 h at 4° C. The protocol:
Direct equilibrium binding titrations of the recombinant engineered AgRP peptides were performed on U87MG glioblastoma cells. Peptides were incubated with cells for 3 h at 4° C., followed by staining with a fluorescein-conjugated anti-His antibody and analysis by flow cytometry. Equilibrium binding constant (KD) values were obtained by fitting plots of concentration versus mean fluorescence intensity to a sigmoidal curve using KaleidaGraph software.
(§1) All cell lines were cultured at 37° C. with 5% CO2. Adherent U87MG cells were obtained from ATCC and cultured in DMEM media (Gibco 11995) supplemented with 10% fetal bovine serum. Untransfected K562 cells (α5 β1-positive) were obtained from ATCC and cultured in suspension in IMDM media (Gibco 12440) supplemented with 10% fetal bovine serum. K562 cells stably transfected with αv β3, αv β5, or αiib β3 integrins were obtained from S. Blystone (Blystone, S. D., Graham, I. L., Lindberg, F. P. & Brown, E. J. (1994). Integrin avb3 differentially regulates adhesive and phagocytic functions of the fibronectin receptor a5b1. J. Cell Biol. 127, 1129-1137) and were grown in media supplemented with 10 μg/mL geneticin. Equilibrium binding assays were performed with 10^5 cells per reaction. Cells were suspended in IBB with varying amounts of engineered AgRP peptide at 4° C. for 3 h with gentle rocking. The cells were washed and resuspended in BPBS with a 1:40 dilution of fluorescein-conjugated anti-6×-His antibody (Bethyl A190-113F) and incubated on ice for 20 min. After washing, the cells were analyzed by flow cytometry using a BD FACSCalibur instrument and CellQuest software (Becton Dickinson, Franklin Lakes, N.J.). Mean fluorescence intensity values for each cell population was plotted against concentration on a log scale. Data was fit to sigmoidal curves to obtain equilibrium dissociation constants using KaleidaGraph (Synergy Software), and is presented as average values with standard deviations. Each assay was performed a minimum of three times.

In assay [2] the test system is K562-αvβ3 cells. The assay can be described thus: Equilibrium binding to K562 cells expressing αvβ3 integrin. As to conditions: recombinant peptides with FLAG and His tags. The protocol: To determine the binding specificities of the AgRP peptides for αvβ3 integrin versus the αvβ5 and α5β1 integrins also expressed on U87MG cells, K562 leukemia cells that had been stably transfected with individual α and β integrin subunits were used. The engineered AgRP peptides were tested for binding to untransfected K562 cells, which intrinsically express α5β1 integrin. Equilibrium binding assays were performed on the untransfected K562 cells as described above for the U87MG cells. Three peptide concentrations were tested. Negligible signal over background levels (cells stained with fluorescein-conjugated anti-His antibody alone) even at 500 nM, the highest concentration tested, was observed.
The engineered AgRP peptides were tested for binding to K562 cells expressing αvβ5 αiiiβ3 or αvβ3 integrins. The peptides were tested at three concentrations with very little signal over background for cells expressing αvβ5 integrin, even at 500 nM, the highest concentration. The peptides bound weakly to the K562 cells expressing αiiβ3 integrins and, as expected, strongly to the K562 cells expressing αvβ3 integrins. In order to determine KD values for the engineered AgRP peptides against K562-αiiβ3 and K562-αvβ3 cells, binding titrations were done over a larger range of concentrations. […] KD values for peptide binding to K562-αiibβ3 cells could not be determined because binding was still increasing at the highest concentration (5 μM) of peptides tested.
as §1, with “Data was fit to sigmoidal curves to obtain equilibrium dissociation constants using KaleidaGraph (Synergy Software), and is presented as average values with standard deviations. Each assay was performed a minimum of three times.” left out

Assay [3] addresses α5β1 integrin (Homo sapiens, UniProt P05556+P08648). In words: Competition of 125I-echistatin to detergent-solubilized plate-coated integrin. It counts as binding. As to conditions: 0.06 nM 125I echistatin, 5 nM and 50 nM peptide. The protocol:
(§2) FIG. 10A through FIG. 10D is a series of histograms showing binding specificities to integrins αvβ3, αvβ5, α5β1, and αiibβ3 for engineered EETI-RGD peptides compared to controls. Error bars represent experiments performed in triplicate. Competition binding of 0.06 nM ^125I echistatin with 5 nM (black bars) and 50 nM (grey bars) unlabeled peptide to plate-coated integrins was measured. […] The engineered peptides have very little binding to αiibβ3 integrin.
(§3) This was done by competition of ^125I-echistatin to detergent-solubilized integrin receptors coated onto microtiter plates (see FIG. 10). […] This is consistent with previous studies which have shown αv integrin receptors can accommodate a wide range of RGD-containing cyclic structures. […] However, since α5β1 integrins are expressed on many tumors and are all involved in mediating angiogenesis and metastasis, a broad spectrum agent that targets all three integrins will be useful for diagnostic and therapeutic applications. With the exception of echistatin, all of the RGD-containing peptides bound weakly to the αiibβ3 receptor, showing the specificity of the present peptides for the αv and α5-containing integrin heterodimers. This characteristic is valuable for molecular imaging and therapeutic applications, since binding to αiibβ3 on platelet cells prevents blood clotting and would lead to non-specific in vivo effects.

Assay [4] deals with αiibβ3 integrin (Homo sapiens, UniProt P05106+P08514). Described as above. Particulars: 0.06 nM 125I echistatin, 5 nM and 50 nM peptide. It counts as binding. The procedure: as §2, §3
In assay [5] the target is αvβ3 integrin (Homo sapiens, UniProt P05106+P06756). The description is as above. As to conditions: 0.06 nM 125I echistatin, 5 nM and 50 nM peptide. Format: binding. The protocol: as §2, §3
αvβ3 integrin, sequence (P06756 31-889 limits assumed): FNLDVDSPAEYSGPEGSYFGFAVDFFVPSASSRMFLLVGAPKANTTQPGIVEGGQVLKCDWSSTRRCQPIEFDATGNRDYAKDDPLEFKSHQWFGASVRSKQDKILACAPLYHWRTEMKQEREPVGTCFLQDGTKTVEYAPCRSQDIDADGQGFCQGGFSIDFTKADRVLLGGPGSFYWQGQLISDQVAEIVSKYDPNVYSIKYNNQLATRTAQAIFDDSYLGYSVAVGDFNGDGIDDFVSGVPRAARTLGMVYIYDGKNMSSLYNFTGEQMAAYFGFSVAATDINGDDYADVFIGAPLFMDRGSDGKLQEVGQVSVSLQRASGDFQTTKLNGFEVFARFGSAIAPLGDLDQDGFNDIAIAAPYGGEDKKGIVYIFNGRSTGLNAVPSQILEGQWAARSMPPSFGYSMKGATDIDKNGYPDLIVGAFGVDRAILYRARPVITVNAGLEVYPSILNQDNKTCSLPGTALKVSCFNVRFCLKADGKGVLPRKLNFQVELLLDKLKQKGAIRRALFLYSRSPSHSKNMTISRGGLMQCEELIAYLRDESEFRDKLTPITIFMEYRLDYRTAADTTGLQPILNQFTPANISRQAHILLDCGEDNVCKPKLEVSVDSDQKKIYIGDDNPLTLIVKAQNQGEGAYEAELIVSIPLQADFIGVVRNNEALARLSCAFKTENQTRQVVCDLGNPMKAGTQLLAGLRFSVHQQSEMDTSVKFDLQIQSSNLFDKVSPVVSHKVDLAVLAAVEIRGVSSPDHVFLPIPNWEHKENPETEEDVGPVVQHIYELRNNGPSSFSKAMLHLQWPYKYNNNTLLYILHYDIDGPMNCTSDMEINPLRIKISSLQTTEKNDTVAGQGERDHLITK
αvβ3 integrin, sequence (P06756 891-1048 partner limits assumed): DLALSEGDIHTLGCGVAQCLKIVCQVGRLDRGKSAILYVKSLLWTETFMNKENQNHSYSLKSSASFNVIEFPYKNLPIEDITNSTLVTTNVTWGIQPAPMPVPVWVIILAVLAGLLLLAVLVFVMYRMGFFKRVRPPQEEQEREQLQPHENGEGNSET
αvβ3 integrin, sequence (P05106 27-788): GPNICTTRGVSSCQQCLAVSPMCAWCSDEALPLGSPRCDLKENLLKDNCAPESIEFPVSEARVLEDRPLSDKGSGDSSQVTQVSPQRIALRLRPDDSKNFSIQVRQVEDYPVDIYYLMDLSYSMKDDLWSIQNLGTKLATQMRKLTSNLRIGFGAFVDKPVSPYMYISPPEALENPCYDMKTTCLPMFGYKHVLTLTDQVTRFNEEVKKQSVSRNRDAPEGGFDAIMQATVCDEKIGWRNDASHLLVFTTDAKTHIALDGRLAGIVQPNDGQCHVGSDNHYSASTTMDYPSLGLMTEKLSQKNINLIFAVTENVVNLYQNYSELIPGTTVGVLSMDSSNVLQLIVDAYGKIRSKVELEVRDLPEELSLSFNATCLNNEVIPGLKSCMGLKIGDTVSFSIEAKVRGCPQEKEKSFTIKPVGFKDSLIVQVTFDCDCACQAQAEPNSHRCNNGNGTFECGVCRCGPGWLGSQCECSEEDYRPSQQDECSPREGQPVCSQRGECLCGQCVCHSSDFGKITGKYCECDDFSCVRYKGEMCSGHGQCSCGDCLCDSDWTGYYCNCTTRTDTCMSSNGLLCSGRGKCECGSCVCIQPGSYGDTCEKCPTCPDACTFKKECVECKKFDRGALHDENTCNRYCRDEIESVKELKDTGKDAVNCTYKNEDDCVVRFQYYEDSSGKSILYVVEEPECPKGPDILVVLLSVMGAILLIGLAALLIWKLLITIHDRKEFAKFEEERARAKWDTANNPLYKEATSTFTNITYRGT
For assay [6], the target named is αvβ5 integrin (Homo sapiens, UniProt P06756+P18084). Described as above. Format: binding. Particulars: 0.06 nM 125I echistatin, 5 nM and 50 nM peptide. The protocol:
as §2, §3

Consider 5 compounds from patent publication US9265845B2, “Imaging methods using engineered integrin binding peptides” (The Board of Trustees of the Leland Stanford Junior …, priority 2006, dated 2016).

Positions of bridges follow the written chain, without caps; N, C: chain ends. Residues, ends and D or L forms follow the SMILES beside them. No end group written: not given here.

α5β1 integrin, sequence (P08648 42-894 limits assumed): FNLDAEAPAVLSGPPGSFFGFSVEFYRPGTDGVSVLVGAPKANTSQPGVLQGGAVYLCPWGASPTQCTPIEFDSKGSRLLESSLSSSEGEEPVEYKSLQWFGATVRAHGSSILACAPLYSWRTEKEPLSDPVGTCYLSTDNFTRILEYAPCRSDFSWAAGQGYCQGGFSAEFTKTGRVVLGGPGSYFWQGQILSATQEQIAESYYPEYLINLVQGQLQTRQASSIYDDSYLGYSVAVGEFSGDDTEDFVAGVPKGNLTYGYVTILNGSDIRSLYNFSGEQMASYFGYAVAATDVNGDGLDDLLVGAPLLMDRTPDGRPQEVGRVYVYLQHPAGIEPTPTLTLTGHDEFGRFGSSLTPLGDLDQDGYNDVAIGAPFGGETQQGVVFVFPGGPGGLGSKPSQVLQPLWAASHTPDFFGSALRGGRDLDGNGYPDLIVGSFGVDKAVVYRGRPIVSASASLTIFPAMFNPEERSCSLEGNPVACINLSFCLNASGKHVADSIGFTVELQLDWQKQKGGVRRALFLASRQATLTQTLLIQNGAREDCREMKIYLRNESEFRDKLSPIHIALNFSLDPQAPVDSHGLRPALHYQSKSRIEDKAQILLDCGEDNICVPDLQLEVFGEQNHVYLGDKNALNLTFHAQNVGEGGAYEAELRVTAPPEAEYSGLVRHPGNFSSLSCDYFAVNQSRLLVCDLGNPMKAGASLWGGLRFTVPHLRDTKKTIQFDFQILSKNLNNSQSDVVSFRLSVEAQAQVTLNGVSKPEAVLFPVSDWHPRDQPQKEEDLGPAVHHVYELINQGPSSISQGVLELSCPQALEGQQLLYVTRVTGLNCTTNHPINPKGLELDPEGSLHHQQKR
α5β1 integrin, sequence (P08648 895-1049 partner limits assumed): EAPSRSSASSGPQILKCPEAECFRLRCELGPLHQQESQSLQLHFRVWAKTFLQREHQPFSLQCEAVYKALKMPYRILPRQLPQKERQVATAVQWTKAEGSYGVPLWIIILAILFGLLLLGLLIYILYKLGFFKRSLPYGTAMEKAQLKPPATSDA
α5β1 integrin, sequence (P05556 21-798): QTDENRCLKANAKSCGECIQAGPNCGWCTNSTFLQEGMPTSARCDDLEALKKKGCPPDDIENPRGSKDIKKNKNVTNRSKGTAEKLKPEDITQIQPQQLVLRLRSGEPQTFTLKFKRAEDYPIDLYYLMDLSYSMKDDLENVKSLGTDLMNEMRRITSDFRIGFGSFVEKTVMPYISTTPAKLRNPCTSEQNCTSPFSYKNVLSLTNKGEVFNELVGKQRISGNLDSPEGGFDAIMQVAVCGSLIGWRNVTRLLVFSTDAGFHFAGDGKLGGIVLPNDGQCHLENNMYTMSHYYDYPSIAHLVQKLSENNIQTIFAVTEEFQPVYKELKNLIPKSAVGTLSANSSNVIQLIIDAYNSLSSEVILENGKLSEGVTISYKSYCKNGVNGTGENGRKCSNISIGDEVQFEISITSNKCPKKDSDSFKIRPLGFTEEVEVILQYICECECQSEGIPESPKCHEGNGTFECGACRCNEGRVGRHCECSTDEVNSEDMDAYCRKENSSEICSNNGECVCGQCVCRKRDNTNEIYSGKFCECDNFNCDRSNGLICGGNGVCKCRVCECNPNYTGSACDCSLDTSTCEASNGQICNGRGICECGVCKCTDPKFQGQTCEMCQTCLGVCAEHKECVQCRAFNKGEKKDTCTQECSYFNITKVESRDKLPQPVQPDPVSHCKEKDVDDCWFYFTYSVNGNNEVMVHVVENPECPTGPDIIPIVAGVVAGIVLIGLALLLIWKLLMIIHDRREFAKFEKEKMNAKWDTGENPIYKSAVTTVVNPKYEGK
αvβ5 integrin, sequence (P06756 31-889 limits assumed): as the sequence (P06756 31-889 limits assumed) above
αvβ5 integrin, sequence (P06756 891-1048 partner limits assumed): as the sequence (P06756 891-1048 partner limits assumed) above
αvβ5 integrin, sequence (P18084 24-799): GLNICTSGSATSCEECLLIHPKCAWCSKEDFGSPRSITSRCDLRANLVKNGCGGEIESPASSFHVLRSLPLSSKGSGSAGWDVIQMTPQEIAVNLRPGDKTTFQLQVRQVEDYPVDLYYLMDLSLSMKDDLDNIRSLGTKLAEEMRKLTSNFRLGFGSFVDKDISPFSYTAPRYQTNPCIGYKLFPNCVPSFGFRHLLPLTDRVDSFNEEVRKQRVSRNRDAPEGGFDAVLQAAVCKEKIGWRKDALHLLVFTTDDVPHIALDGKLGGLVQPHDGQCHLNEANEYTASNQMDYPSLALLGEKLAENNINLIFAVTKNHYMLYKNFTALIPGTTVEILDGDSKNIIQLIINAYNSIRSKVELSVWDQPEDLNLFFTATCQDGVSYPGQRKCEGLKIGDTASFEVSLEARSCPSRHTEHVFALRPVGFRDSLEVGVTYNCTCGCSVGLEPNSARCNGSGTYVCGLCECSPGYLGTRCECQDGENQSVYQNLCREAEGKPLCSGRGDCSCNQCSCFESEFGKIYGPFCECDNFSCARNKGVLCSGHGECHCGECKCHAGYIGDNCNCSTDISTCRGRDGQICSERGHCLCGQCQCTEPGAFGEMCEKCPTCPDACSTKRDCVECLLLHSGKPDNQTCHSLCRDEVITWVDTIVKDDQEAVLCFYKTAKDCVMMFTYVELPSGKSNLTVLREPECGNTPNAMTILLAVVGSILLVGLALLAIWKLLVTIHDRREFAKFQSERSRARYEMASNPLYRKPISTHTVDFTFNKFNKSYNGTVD

In the case of `CC(C)C[C@@H]1NC(=O)[C@@H]2CSSC[C@@H]3NC(=O)[C@H]([C@@H](C)O)NC(=O)[C@H](C)NC(=O)[C@H](C)NC(=O)[C@@H]4CCCN4C(=O)[C@H](CC(=O)O)NC(=O)[C@H](CSSC[C@H](NC(=O)CN)C(=O)N[C@@H](C(C)C)C(=O)N[C@@H](CCCNC(=N)N)C(=O)N[C@@H](CC(C)C)C(=O)N[C@@H](Cc4c[nH]cn4)C(=O)N[C@@H](CCC(=O)O)C(=O)N[C@@H](CO)C(=O)N2)NC(=O)[C@H](CSSC[C@@H](C(=O)N[C@@H](CCCNC(=N)N)C(=O)O)NC(=O)[C@H](Cc2ccc(O)cc2)NC(=O)[C@@H]2CSSC[C@H](NC(=O)[C@H](Cc4ccc(O)cc4)NC3=O)C(=O)N[C@@H]([C@@H](C)O)C(=O)NCC(=O)N[C@@H](CCCNC(=N)N)C(=O)NCC(=O)N[C@@H](CC(=O)O)C(=O)N[C@@H](CCC(=O)O)C(=O)N[C@@H](CCCCN)C(=O)N[C@@H](CC(C)C)C(=O)N[C@@H](CCCNC(=N)N)C(=O)N2)NC(=O)[C@@H]2CCCN2C(=O)[C@H](C(C)C)NC(=O)[C@H](CCC(N)=O)NC(=O)[C@H](CCC(N)=O)NC(=O)CNC1=O` [6C] (H-GCVRLHESCLGQQVPCCDPAATCYCTGRGDEKLRCYCR-OH; disulfide 2-17, 9-23, 16-37, 25-35; N-terminus and C-terminus assumed), the Kd (in general, the equilibrium constant for the complex coming apart) in assay [1] was determined as 13 ± 2 nM; in assay [2] it was 15 ± 4 nM.

`CC(C)C[C@@H]1NC(=O)[C@@H]2CSSC[C@@H]3NC(=O)[C@H]([C@@H](C)O)NC(=O)[C@H](C)NC(=O)[C@H](C)NC(=O)[C@@H]4CCCN4C(=O)[C@H](CC(=O)O)NC(=O)[C@H](CSSC[C@H](NC(=O)CN)C(=O)N[C@@H](C(C)C)C(=O)N[C@@H](CCCNC(=N)N)C(=O)N[C@@H](CC(C)C)C(=O)N[C@@H](Cc4c[nH]cn4)C(=O)N[C@@H](CCC(=O)O)C(=O)N[C@@H](CO)C(=O)N2)NC(=O)[C@H](CSSC[C@@H](C(=O)N[C@@H](CCCNC(=N)N)C(=O)O)NC(=O)[C@H](Cc2ccc(O)cc2)NC(=O)[C@@H]2CSSC[C@H](NC(=O)[C@H](Cc4ccc(O)cc4)NC3=O)C(=O)N[C@@H](CO)C(=O)NCC(=O)N[C@@H](CCCNC(=N)N)C(=O)NCC(=O)N[C@@H](CC(=O)O)C(=O)N[C@@H](CC(N)=O)C(=O)N[C@@H](CC(=O)O)C(=O)N[C@@H](CC(C)C)C(=O)N[C@@H](C(C)C)C(=O)N2)NC(=O)[C@@H]2CCCN2C(=O)[C@H](C(C)C)NC(=O)[C@H](CCC(N)=O)NC(=O)[C@H](CCC(N)=O)NC(=O)CNC1=O` [7A] (H-GCVRLHESCLGQQVPCCDPAATCYCSGRGDNDLVCYCR-OH; disulfide 2-17, 9-23, 16-37, 25-35; N-terminus and C-terminus assumed): in assay [1], the “fold improvement in affinity over the worst binder, 6C” value came out at 17 fold and the dissociation constant (Kd) is 0.78 ± 0.37 nM. For the same compound, the Kd in assay [2] came to 0.89 ± 0.36 nM.

For the compound `CC(C)C[C@@H]1NC(=O)[C@@H]2CSSC[C@@H]3NC(=O)[C@H]([C@@H](C)O)NC(=O)[C@H](C)NC(=O)[C@H](C)NC(=O)[C@@H]4CCCN4C(=O)[C@H](CC(=O)O)NC(=O)[C@H](CSSC[C@H](NC(=O)CN)C(=O)N[C@@H](C(C)C)C(=O)N[C@@H](CCCNC(=N)N)C(=O)N[C@@H](CC(C)C)C(=O)N[C@@H](Cc4c[nH]cn4)C(=O)N[C@@H](CCC(=O)O)C(=O)N[C@@H](CO)C(=O)N2)NC(=O)[C@H](CSSC[C@@H](C(=O)N[C@@H](CCCNC(=N)N)C(=O)O)NC(=O)[C@H](Cc2ccc(O)cc2)NC(=O)[C@@H]2CSSC[C@H](NC(=O)[C@H](Cc4ccc(O)cc4)NC3=O)C(=O)N[C@@H](C(C)C)C(=O)NCC(=O)N[C@@H](CCCNC(=N)N)C(=O)NCC(=O)N[C@@H](CC(=O)O)C(=O)N[C@@H](CC(=O)O)C(=O)N[C@@H](CC(N)=O)C(=O)N[C@@H](CC(C)C)C(=O)N[C@@H](CCCCN)C(=O)N2)NC(=O)[C@@H]2CCCN2C(=O)[C@H](C(C)C)NC(=O)[C@H](CCC(N)=O)NC(=O)[C@H](CCC(N)=O)NC(=O)CNC1=O` [7E] (H-GCVRLHESCLGQQVPCCDPAATCYCVGRGDDNLKCYCR-OH; disulfide 2-17, 9-23, 16-37, 25-35; N-terminus and C-terminus assumed), the Kd in assay [1] was 1.4 ± 0.5 nM; in assay [2], 1.6 ± 1.1 nM.

With `CSCC[C@@H]1NC(=O)[C@H](CC(=O)O)NC(=O)[C@H](CCCNC(=N)N)NC(=O)[C@H](CC(=O)O)NC(=O)CNC(=O)[C@H](CCCNC(=N)N)NC(=O)CNC(=O)[C@H](CCC(=O)O)NC(=O)[C@@H]2CSSC[C@H](NC(=O)[C@H](CCCCN)NC1=O)C(=O)N[C@@H](Cc1ccc(O)cc1)C(=O)N[C@H](C(=O)N[C@@H](CCCNC(=N)N)C(=O)O)CSSC[C@@H]1NC(=O)[C@@H]3CCCN3C(=O)[C@H](C(C)C)NC(=O)[C@H](CCC(N)=O)NC(=O)[C@H](CCC(N)=O)NC(=O)CNC(=O)[C@H](CC(C)C)NC(=O)[C@@H]3CSSC[C@H](NC(=O)[C@H]([C@@H](C)O)NC(=O)[C@H](C)NC(=O)[C@H](C)NC(=O)[C@@H]4CCCN4C(=O)[C@H](CC(=O)O)NC(=O)[C@H](CSSC[C@H](NC(=O)CN)C(=O)N[C@@H](C(C)C)C(=O)N[C@@H](CCCNC(=N)N)C(=O)N[C@@H](CC(C)C)C(=O)N[C@@H](Cc4c[nH]cn4)C(=O)N[C@@H](CCC(=O)O)C(=O)N[C@@H](CO)C(=O)N3)NC1=O)C(=O)N[C@@H](Cc1ccc(O)cc1)C(=O)N2` [7J] (H-GCVRLHESCLGQQVPCCDPAATCYCEGRGDRDMKCYCR-OH; disulfide 2-17, 9-23, 16-37, 25-35; N-terminus and C-terminus assumed), the Kd in assay [1] was determined as 8.3 ± 1.8 nM; in assay [2], 16 ± 8 nM.

As for “DOTA-conjugated FN-RDG2: DOTA conjugate of negative control with RGD switched to RDG (GCVTGRDGSPASSCSQDSDCLAGCVCGPNGFCG; cysteine pairing not given here; also: DOTA conjugate, position not given here)”, the “binding to α5β1 integrin, in words” value in assay [3] is reported as “did not bind”. Moreover, in assay [4], the “binding to αiibβ3 integrin, in words” value is on record as “did not bind”. In addition, in assay [5], the “binding to αvβ3 integrin, in words” value is on record as “did not bind”. The “binding to αvβ5 integrin, in words” value in assay [6] is given as “did not bind”.
